Patent publication US12630529B2, “GCN2 modulator compounds” (ALESTA THERAPEUTICS BV, priority 2020, dated 2026)
pIC50: −log10 of the molar value.

Key:
CHOP (DDIT3) reporter = test: GCN2-induction of CHOP and apoptosis in 3T3 fibroblasts with CHOP (DDIT3) reporter construct; format: cell-based, murine
Method: The CHOP construct comprised the […] (UTR) of mouse DDIT3 mRNA fused to a sequence encoding the fluorescent protein mCherry.
Cells were seeded at 5,000 cells per well in flat bottom 96-well plates in 100 μL DMEM low glucose media without phenol red, and supplemented with 10% FBS and 2 mM glutamine. After 24 hours, the exemplary compounds, and either tunicamycin, halofuginone, or histidinol, were added together with 100 nM of fluorescent apoptosis stain (YO-PRO™-1 Iodide; Thermo Fisher) to detect apoptotic cells. Cells were placed in a live-cell imaging and analysis platform (IncuCyte ZOOM®; Essenbio) set up in a humidified incubator at 37° C. and the plates were scanned every 4 hours for up 120 hours, at 10× magnification, to determine cell confluence and cell death. Experiments were performed in duplicate with 3 images collected per well, and analyzed using live-cell imaging and analysis software (IncuCyte ZOOM® 2018A software; Essenbio).

HT29 cells = test: Growth of tumor spheroids; format: cell-based; conditions: 64 μM arginine, up to 120 hours, vs untreated spheroids
Method: The growth of tumor spheroids was evaluated following treatment of cells with Compound 1, Compound 2 and Compound 108. Briefly, HT29 cells were seeded at 5,000 cells/well in ultra-low attachment round bottom 96-well plates, in 100 μL SILAC DMEM Flex media without phenol red, supplemented with 10% fetal bovine serum (FBS), 1 g/L glucose, 2 mM glutamine, 220 μM lysine, and 64 μM arginine. The plates were centrifuged for 10 minutes at 125×g and put in a humidified incubator at 37° C. for 3 days before the onset of the experiment to allow spheroids to form.
Three days after seeding, 10 μM Compound 1, 10 μM Compound 2, 10 μM Compound 108 or 10 μM vehicle control (0.1% DMSO), were added together with 100 nM fluorescent apoptosis stain (e.g., YO-PRO™-1 Iodide; Thermo Fisher) to detect apoptotic cells and Nuclear-ID Red DNA Stain (1:100,000; ENZO Life Sciences) to detect live cells. Plates were placed in a live-cell imaging and analysis platform (e.g., IncuCyte ZOOM®; Essenbio) set up in a humidified incubator at 37° C. and scanned every 4 hours for up 120 hours, at 10× magnification, to determine relative spheroid size and cell death. Experiments were performed in quadruplicate and analyzed using live-cell imaging and analysis software (e.g., IncuCyte ZOOM® 2018A software; Essenbio).

GCN2 = molecular target: T1, GCN2 (Mus musculus, UniProt Q9QZ05); test: GCN2 inhibition cell-based assay (P-GCN2 Western blot in Neuro 2a cells); conditions: amino acid deprived media (DMEM lacking L-cysteine and methionine), 3 hours
T1 construct: endogenous in cells; host or cells: Neuro 2a (N2a)
Method: Neuro 2a cells (N2a) were maintained at 37° C. and 5% CO2 in DMEM/F12 medium (Fisher Scientific) supplemented with 10% fetal bovine serum and 1% penicillin-streptomycin (complete medium). 300,000 cells/well were seeded in flat bottom 6 well plates 48 hours before treatment with the compounds.
Testing compounds were prepared at different concentrations ranging from 10 μM to 0.1 nM on DMEM medium lacking L-cysteine and methionine (DMEM-CM) (Gibco) and supplemented with 1% penicillin-streptomycin. Complete medium was used as control of non-stressed condition. After 48 hours, the medium was removed from each well and 2 mL per well of each treatment was added. Cells were treated for 3 hours at 37° C. and 5% CO2.
After the incubation time, each well was washed with sterile 1×PBS and then 100 μL of ice-cold lysis buffer supplemented with phosphatase and protease inhibitors was added. Lysates were transferred to 1.5 mL tubes and sonicated for 3 min, and total protein amounts were quantified using BCA assay (e.g., BCA Protein Assay Kit; Pierce) according to manufacturer instructions. Equal amount of proteins was loaded on SDS-PAGE gels for electrophoresis and then transferred onto 0.2 µm filter pore PVDF membranes.
Membranes were then blocked in blocking buffer containing 3% BSA/0.1% Tween/1×Tris-buffered saline (TBS) for 1 hour and then incubated overnight at 4° C. with agitation with anti-pGCN2 primary antibody (Abcam ab-75836), diluted 1:1,000 in blocking buffer. […] (Sigma Aldrich) was used as a loading control.
Membranes were then incubated with the corresponding secondary antibody to detect immune-reactive bands using enhanced chemiluminescence (e.g., ECL Western Blotting Substrate Pierce).
Images were acquired (e.g., using Chemidoc™ equipment) and quantitated by densitometry using ImageJ software. IC50 values were determined from a concentration-response curve using GraphPad prism software.
IC50 values from P-GCN2 inhibition assay after induction with amino acid deprived media in the presence of different concentrations of test compounds are shown in Table 2. For IC50 values: +++ refers to <10 nM of test compound; ++ refers to 10 nM to 100 nM of test compound; + refers to 100 nM to 1,000 nM of test compound and − refers to >1,000 nM of test compound.
Under GCN2-mediated stress conditions, resulting from an amino acid deprived medium, GCN2 is generally phosphorylated. Accordingly, inhibition of GCN2 phosphorylation as a result of the test compound indicates inhibition of the GCN2 pathway.

T1 sequence (Q9QZ05 whole entry): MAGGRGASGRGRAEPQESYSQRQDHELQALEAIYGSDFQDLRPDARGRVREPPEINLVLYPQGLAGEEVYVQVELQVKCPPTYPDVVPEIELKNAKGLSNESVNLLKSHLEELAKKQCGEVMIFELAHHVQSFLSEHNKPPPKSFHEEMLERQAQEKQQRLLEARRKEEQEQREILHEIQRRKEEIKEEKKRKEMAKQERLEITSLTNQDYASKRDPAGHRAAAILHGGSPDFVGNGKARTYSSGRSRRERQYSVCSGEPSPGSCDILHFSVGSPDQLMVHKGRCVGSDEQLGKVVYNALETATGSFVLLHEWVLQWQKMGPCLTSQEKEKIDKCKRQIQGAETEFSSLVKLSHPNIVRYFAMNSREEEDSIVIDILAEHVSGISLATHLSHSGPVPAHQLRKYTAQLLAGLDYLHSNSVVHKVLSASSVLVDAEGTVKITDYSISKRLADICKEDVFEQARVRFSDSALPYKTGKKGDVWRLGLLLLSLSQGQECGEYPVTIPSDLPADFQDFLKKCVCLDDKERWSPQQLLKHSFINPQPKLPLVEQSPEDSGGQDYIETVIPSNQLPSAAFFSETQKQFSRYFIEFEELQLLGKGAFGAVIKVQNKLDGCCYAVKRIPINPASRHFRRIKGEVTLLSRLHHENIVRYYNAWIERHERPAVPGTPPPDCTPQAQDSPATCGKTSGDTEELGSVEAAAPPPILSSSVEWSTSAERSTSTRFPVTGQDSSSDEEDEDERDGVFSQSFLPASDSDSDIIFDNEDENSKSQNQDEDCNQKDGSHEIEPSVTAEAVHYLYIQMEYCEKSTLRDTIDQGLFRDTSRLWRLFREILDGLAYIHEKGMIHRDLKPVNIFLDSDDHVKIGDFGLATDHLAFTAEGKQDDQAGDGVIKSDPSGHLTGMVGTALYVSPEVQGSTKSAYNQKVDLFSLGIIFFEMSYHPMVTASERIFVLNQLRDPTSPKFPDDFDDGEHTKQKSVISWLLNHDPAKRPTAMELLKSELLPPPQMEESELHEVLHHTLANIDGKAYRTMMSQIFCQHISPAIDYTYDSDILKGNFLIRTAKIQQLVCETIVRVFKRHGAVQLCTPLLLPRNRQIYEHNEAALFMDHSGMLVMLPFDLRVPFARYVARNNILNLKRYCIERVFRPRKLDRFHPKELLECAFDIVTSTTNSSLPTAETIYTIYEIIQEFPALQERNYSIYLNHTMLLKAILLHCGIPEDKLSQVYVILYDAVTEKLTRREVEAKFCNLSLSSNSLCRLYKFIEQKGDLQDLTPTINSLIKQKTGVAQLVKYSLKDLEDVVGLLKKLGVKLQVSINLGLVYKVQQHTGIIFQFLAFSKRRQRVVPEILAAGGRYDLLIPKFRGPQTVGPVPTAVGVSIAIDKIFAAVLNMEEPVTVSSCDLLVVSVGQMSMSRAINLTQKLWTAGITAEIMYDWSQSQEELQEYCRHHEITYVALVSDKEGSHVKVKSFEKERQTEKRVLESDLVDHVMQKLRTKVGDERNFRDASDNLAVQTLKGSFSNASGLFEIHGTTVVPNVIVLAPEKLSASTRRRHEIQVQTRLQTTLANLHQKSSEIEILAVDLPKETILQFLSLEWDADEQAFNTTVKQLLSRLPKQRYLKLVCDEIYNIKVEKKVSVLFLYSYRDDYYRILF

Nc1ncc2cc(-c3c(F)ccc(NS(=O)(=O)c4cc(Cl)cc(CO)c4Cl)c3F)ccc2n1 [Compound 108]
GCN2 activation / GCN2-induced CHOP activation (CHOP (DDIT3) reporter; murine 3T3 CHOP (mCherry) reporter fibroblasts, increasing concentrations, in the presence of halofuginone or histidinol): reduced GCN2 activation | apoptosis induced by halofuginone (CHOP (DDIT3) reporter; murine 3T3 WT cells, co-treatment with halofuginone): effectively inhibited apoptosis | late-stage apoptosis induced by histidinol (CHOP (DDIT3) reporter; murine 3T3 WT cells, co-treatment with histidinol): increased late-stage apoptosis | spheroid size and viability (HT29 cells): relative reduction in spheroid size and viability in a dose-dependent manner | pIC50 (GCN2): > 8.00
